Patent publication US7109193B2, “Tricyclic diazepines tocolytic oxytocin receptor antagonists” (Wyeth, priority 2001, dated 2006)

Biological target: T1, human vasopressin V2 receptor subtype (Homo sapiens, UniProt P30518)
T1 construct: host or cells: CHO cells (pZeoSV vector)
Experiment: Vasopressin binding in Chinese Hamster Ovary cell membranes expressing human vasopressin V2 subtype receptors
Conditions: 100 nM, CHO cell membranes, [3H]arginine vasopressin, values without parentheses
Method in brief: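 Radioligand displacement on membranes from CHO cells stably expressing human V2 receptor, 25 to 50 μg protein/well, in 50 mM Tris-HCl pH 7.4 with MgCl2, BSA and protease inhibitors. [^3H]arginine vasopressin (8 nM working solution) incubated 60 min at room temperature; bound label measured by filtration and scintillation counting.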

T1 sequence (P30518 whole entry): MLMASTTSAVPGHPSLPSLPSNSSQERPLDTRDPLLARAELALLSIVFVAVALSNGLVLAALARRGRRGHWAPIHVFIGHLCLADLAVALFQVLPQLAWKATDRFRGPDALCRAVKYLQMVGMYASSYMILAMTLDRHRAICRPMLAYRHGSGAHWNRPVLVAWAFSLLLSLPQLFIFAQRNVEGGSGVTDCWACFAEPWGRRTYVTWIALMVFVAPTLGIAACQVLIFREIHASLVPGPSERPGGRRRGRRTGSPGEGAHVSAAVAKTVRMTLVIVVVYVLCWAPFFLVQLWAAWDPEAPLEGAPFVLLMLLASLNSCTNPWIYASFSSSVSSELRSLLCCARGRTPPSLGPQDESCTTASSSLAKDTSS

Point of comparison: `C=CCN1CCN(C(=O)c2ccc3n2Cc2ccccc2N(C(=O)c2ccc(-c4ccccc4OC)c(C)c2)C3)CC1` [Example 222, (4-Allyl-1-piperazinyl){10-[(2′-methoxy-2-methyl[1,1′-biphenyl]-4-yl)carbonyl]-10,11-dihydro-5H-pyrrolo[2,1-c][1,4]benzodiazepin-3-yl}methanone], inhibition at 0.1 µM 1%. Against it:
- COc1cccc(-c2ccc(C(=O)N3Cc4ccc(C(=O)NCCN5CCCCC5)n4Cc4ccccc43)cc2OC)c1 [Example 159, 10-[(2,3′-Dimethoxy[1,1′-biphenyl]-4-yl)carbonyl]-N-[2-(1-piperidinyl)ethyl]-10,11-dihydro-5H-pyrrolo[2,1-c][1,4]benzodiazepine-3-carboxamide] — higher, 16%
- COc1cc(C(=O)N2Cc3ccc(C(=O)N4CCN(C(C)C)CC4)n3Cc3ccccc32)ccc1-c1ccccc1C [Example 237, (4-isopropyl-1-piperazinyl){10-[(2-methoxy-2′-methyl[1,1′-biphenyl]-4-yl)carbonyl]-10,11-dihydro-5H-pyrrolo[2,1-c][1,4]benzodiazepin-3-yl}methanone] — lower, -3%
- COc1cccc(-c2ccc(C(=O)N3Cc4ccc(C(=O)N5CCN(CCN6CCOCC6)CC5)n4Cc4ccccc43)cc2C)c1 [Example 208, {10-[(3′-Methoxy-2-methyl[1,1′-biphenyl]-4-yl)carbonyl]-10,11-dihydro-5H-pyrrolo[2,1-c][1,4]benzodiazepin-3-yl}{4-[2-(4-morpholinyl)ethyl]-1-piperazinyl}methanone] — higher, 12%
- C=CCN1CCN(C(=O)c2ccc3n2Cc2ccccc2N(C(=O)c2cc(Cl)c(-c4cccc(OC)c4)cc2OC)C3)CC1 [Example 226, (4-Allyl-1-piperazinyl){10-[(6-chloro-3,3′-dimethoxy[1,1′-biphenyl]-4-yl)carbonyl]-10,11-dihydro-5H-pyrrolo[2,1-c][1,4]benzodiazepin-3-yl}methanone] — higher, 10%
- COc1cccc(-c2ccc(C(=O)N3Cc4ccc(C(=O)NCCC5CCCN5C)n4Cc4ccccc43)cc2OC)c1 (centres unmarked) [Example 172, 10-[(2,3′-Dimethoxy[1,1′-biphenyl]-4-yl)carbonyl]-N-[2-(1-methyl-2-pyrrolidinyl)ethyl]-10,11-dihydro-5H-pyrrolo[2,1-c][1,4]benzodiazepine-3-carboxamide] — higher, 11%
- Cc1ccccc1-c1ccc(C(=O)N2Cc3ccc(C(=O)N4CCN(CCN5CCOCC5)CC4)n3Cc3ccccc32)cc1 [Example 209, {10-[(2′-Methyl[1,1′-biphenyl]-4-yl)carbonyl]-10,11-dihydro-5H-pyrrolo[2,1-c][1,4]benzodiazepin-3-yl}{4-[2-(4-morpholinyl)ethyl]-1-piperazinyl}methanone] — higher, 10%
- COc1cccc(-c2cc(OC)c(C(=O)N3Cc4ccc(C(=O)N5CCN(C(C)C)CC5)n4Cc4ccccc43)cc2Cl)c1 [Example 239, {10-[(6-Chloro-3,3′-dimethoxy[1,1′-biphenyl]-4-yl)carbonyl]-10,11-dihydro-5H-pyrrolo[2,1-c][1,4]benzodiazepin-3-yl}(4-isopropyl-1-piperazinyl)methanone] — higher, 16%
- C=CCN1CCN(C(=O)c2ccc3n2Cc2ccccc2N(C(=O)c2ccc(-c4ccccc4OC)c(OC)c2)C3)CC1 [Example 227, (4-Allyl-1-piperazinyl){10-[(2,2′-dimethoxy[1,1′-biphenyl]-4-yl)carbonyl]-10,11-dihydro-5H -pyrrolo[2,1-c][1,4]benzodiazepin-3-yl}methanone] — higher, 2%
- COc1cccc(-c2ccc(C(=O)N3Cc4ccc(C(=O)N5CCN(C(C)C)CC5)n4Cc4ccccc43)cc2C)c1 [Example 235, (4-Isopropyl-1-piperazinyl){10-[(3′-methoxy-2-methyl[1,1′-biphenyl]-4-yl)carbonyl]-10,11-dihydro-5H-pyrrolo[2,1-c][1,4]benzodiazepin-3-yl}methanone] — higher, 17%
- Cc1ccccc1-c1ccc(C(=O)N2Cc3ccc(C(=O)NCCC4CCCN4C)n3Cc3ccccc32)cc1 (centres unmarked) [Example 166, 10-[(2′-Methyl[1,1′-biphenyl]-4-yl)carbonyl]-N-[2-(1-methyl-2-pyrrolidinyl)ethyl]-10,11-dihydro-5H-pyrrolo[2,1-c][1,4]benzodiazepine-3-carboxamide] — higher, 3%
- Cc1cc(C(=O)N2Cc3ccc(C(=O)N(C)C4CCN(C)CC4)n3Cc3ccccc32)ccc1-c1ccccc1C(F)(F)F [Example 184, N-Methyl-N-(1-methyl-4-piperidinyl)-10-{[2-methyl-2′-(trifluoromethyl)[1,1′-biphenyl]-4-yl]carbonyl}-10,11-dihydro-5H-pyrrolo[2,1-c][1,4]benzodiazepine-3-carboxamide] — higher, 9%
- Cc1ccccc1-c1ccc(C(=O)N2Cc3ccc(C(=O)N(C)C4CCN(C)C4)n3Cc3ccccc32)cc1 (centres unmarked) [Example 188, N-Methyl-10-[(2′-methyl[1,1′-biphenyl]-4-yl)carbonyl]-N-(1-methyl-3-pyrrolidinyl)-10,11-dihydro-5H-pyrrolo[2,1-c][1,4]benzodiazepine-3-carboxamide] — higher, 10%
- COc1ccccc1-c1ccc(C(=O)N2Cc3ccc(C(=O)NCCN4CCCCC4)n3Cc3ccccc32)cc1OC [Example 158, 10-[(2,2′-Dimethoxy[1,1′-biphenyl]-4-yl)carbonyl]-N-[2-(1-piperidinyl)ethyl]-10,11-dihydro-5H-pyrrolo[2,1-c][1,4]benzodiazepine-3-carboxamide] — higher, 19%
- COc1ccccc1-c1ccc(C(=O)N2Cc3ccc(C(=O)N4CCN(C(C)C)CC4)n3Cc3ccccc32)cc1 [Example 234, (4-Isopropyl-1-piperazinyl){10-[(2′-methoxy[1,1′-biphenyl]-4-yl)carbonyl]-10,11-dihydro-5H-pyrrolo[2,1-c][1,4]benzodiazepin-3-yl}methanone] — higher, 22%
- COc1cc(C(=O)N2Cc3ccc(C(=O)N4CCN(CCN5CCOCC5)CC4)n3Cc3ccccc32)ccc1-c1cccc2ccccc12 [Example 213, {10-[3-Methoxy-4-(1-naphthyl)benzoyl]-10,11-dihydro-5H-pyrrolo[2,1-c][1,4]benzodiazepin-3-yl}{4-[2-(4-morpholinyl)ethyl]-1-piperazinyl}methanone] — higher, 33%
- COc1cc(C(=O)N2Cc3ccc(C(=O)N(C)C4CCN(C)C4)n3Cc3ccccc32)ccc1-c1ccccc1C (centres unmarked) [Example 189, 10-[(2-Methoxy-2′-methyl[1,1′-biphenyl]-4-yl)carbonyl]-N-methyl-N-(1-methyl-3-pyrrolidinyl)-10,11-dihydro-5H-pyrrolo[2,1-c][1,4]benzodiazepine-3-carboxamide] — higher, 22%
- COc1cc(C(=O)N2Cc3ccc(C(=O)N4CCN(CCN(C)C)CC4)n3Cc3ccccc32)ccc1-c1cccc2ccccc12 [Example 203, {4-[2-(Dimethylamino)ethyl]-1-piperazinyl}{10-[3-methoxy-4-(1-naphthyl)benzoyl]-10,11-dihydro-5H-pyrrolo[2,1-c][1,4]benzodiazepin-3-yl}methanone] — higher, 28%
- COc1cc(C(=O)N2Cc3ccc(C(=O)N(C)C4CCN(C)CC4)n3Cc3ccccc32)ccc1-c1ccccc1C [Example 179, 10-[(2-Methoxy-2′-methyl[1,1′-biphenyl]-4-yl)carbonyl]-N-methyl-N-(1-methyl-4-piperidinyl)-10,11-dihydro-5H-pyrrolo[2,1-c][1,4]benzodiazepine-3-carboxamide] — higher, 23%
- COc1ccccc1-c1ccc(C(=O)N2Cc3ccc(C(=O)N(C)C4CCN(C)CC4)n3Cc3ccccc32)cc1C [Example 175, 10-[(2′-Methoxy-2-methyl[1,1′-biphenyl]-4-yl)carbonyl]-N-methyl-N-(1-methyl-4-piperidinyl)-10,11-dihydro-5H-pyrrolo[2,1-c][1,4]benzodiazepine-3-carboxamide] — higher, 17%
- COc1ccccc1-c1ccc(C(=O)N2Cc3ccc(C(=O)O)n3Cc3ccccc32)cc1C [Example 9, 10-[(2′-Methoxy-2-methyl-[1,1′-biphenyl]-4-yl)carbonyl]-10,11-dihydro-5H-pyrrolo[2,1-c][1,4]benzodiazepine-3-carboxylic acid] — higher, 42%
- COc1cc(-c2ccccc2C(F)(F)F)c(Cl)cc1C(=O)N1Cc2ccc(C(=O)O)n2Cc2ccccc21 [Example 15, 10-{[6-Chloro-3-methoxy-2′-trifluoromethyl-[1,1′-biphenyl]-4-yl]carbonyl}-10,11-dihydro-5H-pyrrolo[2,1-c][1,4]benzodiazepine-3-carboxylic acid] — higher, 27%
- COc1cc(C(=O)N2Cc3ccc(C(=O)N4CCN(CCN5CCOCC5)CC4)n3Cc3ccccc32)ccc1-c1ccccc1C [Example 210, {10-[(2-Methoxy-2′-methyl[1,1′-biphenyl]-4-yl)carbonyl]-10,11-dihydro-5H-pyrrolo[2,1-c][1,4]benzodiazepin-3-yl}{4-[2-(4-morpholinyl)ethyl]-1-piperazinyl}methanone] — higher, 17%
- COc1ccccc1-c1ccc(C(=O)N2Cc3ccc(C(=O)N(C)C4CCN(C)C4)n3Cc3ccccc32)cc1 (centres unmarked) [Example 187, 10-[(2′-Methoxy[1,1′-biphenyl]-4-yl)carbonyl]-N-methyl-N-(1-methyl-3-pyrrolidinyl)-10,11-dihydro-5H-pyrrolo[2,1-c][1,4]benzodiazepine-3-carboxamide] — higher, 31%
- COc1cc(-c2ccccc2C)c(Cl)cc1C(=O)N1Cc2ccc(C(=O)NCCC3CCCN3C)n2Cc2ccccc21 (centres unmarked) [Example 168, 10-[(6-Chloro-3-methoxy-2′-methyl[1,1′-biphenyl]-4-yl)carbonyl]-N-[2-(1-methyl-2-pyrrolidinyl)ethyl]-10,11-dihydro-5H-pyrrolo[2,1-c][1,4]benzodiazepine-3-carboxamide] — higher, 10%
- COc1ccccc1-c1ccc(C(=O)N2Cc3ccc(C(=O)NCCC4CCCN4C)n3Cc3ccccc32)cc1OC (centres unmarked) [Example 171, 10-[(2,2′-Dimethoxy[1,1′-biphenyl]-4-yl)carbonyl]-N-[2-(1-methyl-2-pyrrolidinyl)ethyl]-10,11-dihydro-5H-pyrrolo[2,1-c][1,4]benzodiazepine-3-carboxamide] — higher, 14%
